Laboratory results taken from patent publication US6576263B2, “Delivery systems using preformed biodegradable polymer compositions and methods” (3M Innovative Properties Company, priority 2000, dated 2003).

Legend:
Format in all cases: physicochemical
[1] = Release of 5FU from albumin plugs containing alginic acid without added calcium; conditions: over a 5-hr period; alginate/5FU without calcium in albumin plug, PBS pH 7.4
Experimental: (§1) One milliliter of 1.04 mg/ml 5-fluorouracil was mixed with 30 mg of alginic acid. The pH of the mixture was brought to 6.8, and then placed into a vacuum desiccator with DRIERITE to dry for 24 hr. The resulting alginate/5FU film was ground up and mixed into the 30% albumin solution (see Example 2) just prior to being placed into the 5 ml syringe forms and crosslinked with an equivalent volume of PEG-(SS)2 crosslinker (136 mg/ml). Each plug was placed into a separate vial, and 5 ml of phosphate buffered saline (PBS), at pH 7.4, was added at sample time 0 (t0). The vials were maintained at room temperature and were shaken continuously. At each sample time, the entire content of the vial was removed and replaced with 5 ml of fresh PBS. Samples were taken at 1 hr, 2 hr, 3 hr, 4 hr, 5 hr, and 24 hr.
The 5FU was analyzed as in Example 1.

[2] = Release of 5FU from preformed, dried albumin/PEG-(SS)2 plugs reconstituted with 5FU solution; conditions: rehydrated albumin/PEG-(SS)2 plug, PBS pH 7.4, room temperature
Experimental: Two polymer plugs were preformed in a modified 5-milliliter (ml) poly syringe, wherein the syringe barrel was cut to form an open cylindrical receptacle, and then by mixing 0.5 ml of 29% albumin solution (obtained from American Biological Technology, Seguin, Tex. or by diafiltration (Procedure B) as described above) and 0.5 ml of 136 mg/ml PEG-(SS)2 crosslinker. After crosslinking was complete (15 minutes) the plugs were removed from the syringe and pushed out. The polymer plugs were dried under vacuum for 24 hours (hr). The plugs were reconstituted with […] of a 5FU solution (1.04 mg/ml from Sigma Chemical Co, St. Louis, Mo.) so that each plug contained a total of 187.6 micrograms (μg), or 165.5 μg of 5FU. Each plug was placed into a separate vial, and five ml of phosphate buffered saline (PBS), at pH 7.4, were added at sample time 0 (t0). The vials were maintained at room temperature and were shaken continuously. At each sample time, the entire content of the vial was removed and replaced with 5 ml of fresh PBS. Samples were taken at 0.25 hr, 0.5 hr, 1 hr, 2 hr, 3 hr, 4 hr, 5 hr, 6 hr, and 24 hr. Ana of 5FU was analyzed by high-pressure liquid chromatography, following the method of Bernatchez et al., Int. J. Pharm., 106, 161-166 (1994).

[3] = Release of 5-fluorouracil from plug made with 5FU mixed with the crosslinker and albumin; conditions: over an 8-hr period; 5FU added with crosslinker, PBS pH 7.4, room temperature
Experimental: 136 mg of PEG-(SS)2 crosslinker was dissolved in 1 ml of a 1.04 mg/ml 5-Fluorouracil solution. This solution was then mixed into 1 ml of 30% albumin solution (see Example 2) already in a 5-ml form. The resulting hydrogel plug was removed from the form after 15 minutes and cut into three equal sized pieces (approximately 0.5 cm in thickness). Each piece was then placed into a vial and 4 ml of a PBS buffer (pH 7.4) added at sample time 0 (t0). The vials were maintained at room temperature and were shaken continuously. At each sample time, the entire content of the vial was removed and replaced with 4 ml of fresh PBS. Samples were taken at 1 hr, 2 hr, 4 hr, and 8 hr.

[4] = Release of 5FU from albumin plugs containing alginic acid with added calcium; conditions: over a 5-hr period; alginate/Ca/5FU in albumin plug, PBS pH 7.4
Experimental: as §1, with “One ml of 1.04” for “One milliliter of 1.04”, “6.8, and 150 μl of a saturated calcium chloride/water solution was added to gel the alginate. The gel was divided into 3 approximately equal volumes and then placed” for “6.8, and then placed”, “The resulting alginate/Ca/5FU films were ground up” for “The resulting alginate/5FU film was ground up”, “into the 5-ml forms and” for “into the 5 ml syringe forms and”, “vial, and five mls of phosphate” for “vial, and 5 ml of phosphate”
The 5FU was analyzed as described in Example 1.

[5] = Release of cefazolin from albumin plugs made with 4-arm PEG crosslinker; conditions: albumin/4-arm PEG plug, PBS pH 7.4, room temperature
Experimental: Two polymer plugs were preformed from 0.5 ml of 30% albumin solution (Procedure B) and 0.5 ml of 110 mg/ml 4-arm-N-hydroxysuccinimidyl ester of poly(ethylene glycol)-succinate crosslinker (Shearwater Polymers, Inc., Huntsville, Ala.). Approximately 10 mg of sodium cefazolin (Sigma Chemical. Co., St. Louis, Mo.) was dissolved in the albumin before the crosslinker was added to form the cylindrical plugs. Each formed plug was placed into a separate vial, and 8 mls of phosphate buffered saline (PBS) at pH 7.4 was added at sample time (t0). The vials were maintained at room temperature and were shaken continuously. At each sample time, the entire content of the vial was removed and replaced with eight ml of fresh PBS. Samples were taken at 0.25, 0.5, 1, 2, 3, 4, 5, and 24 hours and approximately every 24 hours thereafter up to 144 hours.
Cefazolin was analyzed by high-pressure liquid chromatography, following the method of Liang et al, J. Chromatog. B., 656, 45-465 (1994). The column was a Waters C-18 (3.9×300 mm) column sold under the tradename MICROBONDAPAK and the column temperature was maintained at 25° C. The mobile phase consisted of 0.02M sodium phosphate buffer (pH=5.0 and methanol (77:23). The wavelength used for detection was 270 nm and the column flow rate was 1.0 ml/min.

| Structure (SMILES) | 5FU released [1] | time period over which 5FU was released [2] | 5-fluorouracil released [3] | 5FU released [4] | total cefazolin released ([5]; over 144 hours) | cefazolin released ([5]; over the first 5-hour time period) |
| --- | --- | --- | --- | --- | --- | --- |
| O=c1[nH]cc(F)c(=O)[nH]1 [Example 5FU, 5-fluorouracil] | about 40% | 5 h | about 55% | about 60% | – | – |
| Cc1nnc(SCC2=C(C(=O)O)N3C(=O)[C@@H](NC(=O)Cn4cnnn4)[C@H]3SC2)s1 [cefazolin] | – | – | – | – | 95.6% | approximately 67% |
